In the supplement of paper PMC10307832:

Legend:
Experiment in all cases: relative viability (nuclei count vs DMSO), 5 days (fraction); higher = more cells survive
Erlotinib + Luminespib = compound: C#Cc1cccc(Nc2ncnc3cc(OCCOC)c(OCCOC)cc23)c1 [Erlotinib] + CCNC(=O)c1noc(-c2cc(C(C)C)c(O)cc2O)c1-c1ccc(CN2CCOCC2)cc1 [Luminespib] (partner 0.01 µM)
Summary of the method: (§1)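 Cells from lung cancer lines were seeded into 1536-well plates and, one day later, dosed by pin tool. Treatments were either a single drug or a fixed dose of an anchor drug with five library-drug doses (not always all listed) in √10 steps. After 5 days, nuclei were stained in a one-step fixation (final 0.05% Triton X-100, 1% formaldehyde, 1 ug/ml Hoechst) and counted on 4× images, and relative viability is the treated-to-vehicle nuclei ratio, as the median of duplicate plates.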

Erlotinib + Bortezomib = compound: C#Cc1cccc(Nc2ncnc3cc(OCCOC)c(OCCOC)cc23)c1 [Erlotinib] + CC(C)C[C@H](NC(=O)[C@H](Cc1ccccc1)NC(=O)c1cnccn1)B(O)O [Bortezomib] (partner 0.002 µM)
Summary of the method: as §1

AT9283 + Tozasertib = compound: O=C(Nc1c[nH]nc1-c1nc2ccc(CN3CCOCC3)cc2[nH]1)NC1CC1 [AT9283] + Cc1cc(Nc2cc(N3CCN(C)CC3)nc(Sc3ccc(NC(=O)C4CC4)cc3)n2)n[nH]1 [Tozasertib] (partner 0.1 µM)
Summary of the method: as §1

AT9283 + Trametinib = compound: O=C(Nc1c[nH]nc1-c1nc2ccc(CN3CCOCC3)cc2[nH]1)NC1CC1 [AT9283] + CC(=O)Nc1cccc(-n2c(=O)n(C3CC3)c(=O)c3c(Nc4ccc(I)cc4F)n(C)c(=O)c(C)c32)c1 [Trametinib] (partner 0.02 µM)
Summary of the method: as §1

AT9283 + Pemetrexed = compound: O=C(Nc1c[nH]nc1-c1nc2ccc(CN3CCOCC3)cc2[nH]1)NC1CC1 [AT9283] + Nc1nc2[nH]cc(CCc3ccc(C(=O)N[C@@H](CCC(=O)O)C(=O)O)cc3)c2c(=O)[nH]1 [Pemetrexed] (partner 0.2 µM)
Summary of the method: as §1

## NCI-H441
Erlotinib + Luminespib; first compound 0.02 µM
  relative viability: 0.259
Erlotinib + Luminespib; first compound 0.2 µM
  relative viability: 0.32
Erlotinib + Luminespib; first compound 0.6325 µM
  relative viability: 0.345
Erlotinib + Luminespib; first compound 2 µM
  relative viability: 0.345
Erlotinib + Bortezomib; first compound 0.02 µM
  relative viability: 0.724
Erlotinib + Bortezomib; first compound 0.2 µM
  relative viability: 0.471
Erlotinib + Bortezomib; first compound 0.6325 µM
  relative viability: 0.383
Erlotinib + Bortezomib; first compound 2 µM
  relative viability: 0.219
AT9283 + Tozasertib; first compound 0.003 µM
  relative viability: 0.707
AT9283 + Tozasertib; first compound 0.03 µM
  relative viability: 0.715
AT9283 + Tozasertib; first compound 0.09487 µM
  relative viability: 0.361
AT9283 + Tozasertib; first compound 0.3 µM
  relative viability: 0.31
AT9283 + Trametinib; first compound 0.003 µM
  relative viability: 0.259
AT9283 + Trametinib; first compound 0.03 µM
  relative viability: 0.439
AT9283 + Trametinib; first compound 0.09487 µM
  relative viability: 0.423
AT9283 + Trametinib; first compound 0.3 µM
  relative viability: 0.22
AT9283 + Pemetrexed; first compound 0.003 µM
  relative viability: 0.228
AT9283 + Pemetrexed; first compound 0.03 µM
  relative viability: 0.274
AT9283 + Pemetrexed; first compound 0.09487 µM
  relative viability: 0.25
AT9283 + Pemetrexed; first compound 0.3 µM
  relative viability: 0.238
